Measurements taken from PubChem BioAssay AID1645868 (Buhrlage Lab, Dana-Farber Cancer Institute and Novartis …, 2021).
The source made the active and inactive calls.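 Rule for the calls: active = maximal percent inhibition of the deubiquitinase OTUD3 of at least 30% across the tested doses; inactive = the rest.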

Target: OTU domain-containing protein 3 (Homo sapiens) (UniProt Q5T2D3)
Experiment: Validation of screening hits, potency titration, in vitro enzymatic, OTU domain-containing protein 3 DUB inhibitors (AID 1645868)
Conditions: purified OTUD3, ubiquitin-rhodamine cleavage fluorescence, 2 h

OTU domain-containing protein 3 (Homo sapiens), sequence (Q5T2D3 whole entry, looked up, the tested form may be a part): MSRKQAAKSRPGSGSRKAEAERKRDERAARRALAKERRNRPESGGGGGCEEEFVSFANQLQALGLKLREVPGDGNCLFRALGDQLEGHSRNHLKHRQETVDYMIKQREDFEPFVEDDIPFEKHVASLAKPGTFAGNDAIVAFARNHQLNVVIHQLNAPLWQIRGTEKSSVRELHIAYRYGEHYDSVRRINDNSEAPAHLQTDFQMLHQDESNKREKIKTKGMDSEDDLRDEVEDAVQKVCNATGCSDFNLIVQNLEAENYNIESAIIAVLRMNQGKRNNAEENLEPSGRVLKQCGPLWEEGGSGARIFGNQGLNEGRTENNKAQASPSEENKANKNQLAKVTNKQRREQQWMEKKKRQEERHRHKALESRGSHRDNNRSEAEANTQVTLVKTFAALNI

IC50	Structure (SMILES)
> 50 µM (inactive)	CC(=O)c1cccc(NC(=O)c2ccc(-c3csc(C)n3)cc2)c1
19.7 µM	Nc1c(C(=O)NCc2ccc3c(c2)OCO3)nnn1Cc1ccc(Br)cc1F
> 50 µM (inactive)	O=C(c1ccc2cc[nH]c2c1)N1CCC(Nc2cccnc2)C1 (centres undefined)
> 50 µM (inactive)	COc1ccc(NC(=O)c2nnn(-c3cccc(C)c3)c2C)cc1
> 50 µM (inactive)	Cc1ccccc1NC(=O)c1ccc(N2CCCCC2)nn1
> 50 µM (inactive)	CC1=C(c2ccc(C)c(C)c2)S(=O)(=O)NC1=NCC(=O)NCCc1ccc(C)cc1
> 50 µM (inactive)	CSc1ccc(CNCc2c(C(=O)O)n(Cc3ccccc3)c3cc(C)ccc23)cc1
> 50 µM (inactive)	CN(CCCNC(=O)c1cccc2c1SCCC2=O)c1ccccc1
> 50 µM (inactive)	Cc1ccc(C)c(CSC2=NCCN2C(=O)c2ccco2)c1
42.4 µM	Cc1nc(-c2noc3ccc(C(=O)Nc4cccnc4)cc23)cs1
32.2 µM	Cc1noc(-c2ccc(N3CCCC(C(=O)NCc4ccc(F)cc4)C3)nc2)n1 (centres undefined)
> 50 µM (inactive)	COc1ccc(Nc2nc(C(=O)NCc3ccccc3)cc3occc23)cc1
> 50 µM (inactive)	Cc1cccc(-c2noc(CCn3c(=O)[nH]c4ccccc4c3=O)n2)c1
> 50 µM (inactive)	Cc1ccc(CNC(=O)c2cnc3ccccc3n2)cc1
> 50 µM (inactive)	Cc1noc(C)c1S(=O)(=O)Nc1ccc(C(=O)Nc2ccc3c(c2)OCCO3)cc1
38.4 µM	O=C(Cn1nc2ccc(C(=O)NCc3ccccc3)cn2c1=O)Nc1ccc2c(c1)OCO2

More lines, now with the values behind:

Structure (SMILES)	IC50
N=C1C(c2nc3ccccc3s2)=C(O)CN1Cc1ccc(F)cc1	> 50 µM (inactive)
Cc1nc(-c2noc(-c3ccncc3)n2)cn1CC(=O)N1CCN(c2ccc(F)cc2)CC1	> 50 µM (inactive)
O=C1c2c(O)cccc2C2(Oc3cccc4cccc(c34)O2)C2OC12 (centres undefined)	22.5 µM
CCc1cc2c(=O)[nH]c(Cc3ccc(OC)cc3)nc2s1	33.4 µM
N#Cc1ccccc1Cn1c(=O)n(CCCCC(=O)NCc2ccco2)c(=O)c2ccccc21	43.5 µM
CC1OC(CC(=O)O)CC23OC12C(=O)c1c(O)cccc1C3=O (centres undefined)	> 50 µM (inactive)
COc1ccc(N2CCN(Cc3nnnn3Cc3ccc4c(c3)OCO4)CC2)cc1	> 50 µM (inactive)
O=C(Cn1c(=O)n(CCC(=O)N2CC=C(c3ccccc3)CC2)c(=O)c2ccccc21)NCc1ccco1	> 50 µM (inactive)
COc1ccc(-c2nc(SCC(=O)Nc3ccc(Cl)cc3F)n[nH]2)cc1	> 50 µM (inactive)
CS(=O)(=O)N1CCCc2cc(C(=O)Nc3ccc(Oc4ccccc4)cc3)ccc21	> 50 µM (inactive)
Fc1ccc(Cc2nc(-c3ccc4nncn4c3)no2)cc1	> 50 µM (inactive)
COc1ccc(NC(=O)CSc2oc(-c3ccc(C)cc3)nc2S(=O)(=O)c2ccc(Br)cc2)c(OC)c1	> 50 µM (inactive)
CCN1C(=O)c2cccnc2Sc2cc(NC(=O)c3ccc(Cl)s3)ccc21	> 50 µM (inactive)
C/C=C(\Cl)C1=CC(=O)[C@]23C[C@H]2[C@@]2(C)CO[C@@]1(O)[C@@]3(O)O2	> 50 µM (inactive)
CC(=O)c1ccc(N2C(=O)N(Cc3cccc([N+](=O)[O-])c3)c3ccccc3S2(=O)=O)cc1	> 50 µM (inactive)
COc1cc(O)c2c(O)c3c(cc2c1)CC(C)OC3=O (centres undefined)	> 50 µM (inactive)
N#Cc1c(N)nc2c(c1N)C(c1ccccc1)CO2 (centres undefined)	> 50 µM (inactive)
Cc1nc(-c2ccc3c(c2)nnn3CCN2CCOCC2)no1	> 50 µM (inactive)
CC(C)N(C(=O)Cn1c(=O)[nH]c2ccccc21)c1ccccc1	> 50 µM (inactive)
CC(C)N1CC2CN(Cc3ccc(Cl)cc3)CCN2Cc2ccccc21 (centres undefined)	> 50 µM (inactive)
O=c1oc2ccccc2c2nn(-c3ccccn3)cc12	> 50 µM (inactive)
O=C(NCc1ccccc1Cl)c1ccc(-c2nnc(-c3ccccc3)o2)cc1	5.57 µM
COc1cccc(C(=O)Oc2ccc3c(=O)c(-c4ccc(OC)c(OC)c4)coc3c2)c1	> 50 µM (inactive)
